# Patent US20090156609A1, “TREATMENT OF POST-TRAUMATIC STRESS DISORDER WITH TETRAHYDROINDOLONE ARYLPIPERZAINE COMPOUNDS” (priority 2007, published 2009)
# Tests used:
# [1] = system: C57/BL6 male mice; experiment: Contextual fear conditioning in an open field model; assay type: in vivo; conditions: 3.0 mg/kg subcutaneously for 10 consecutive days, tested day 16 after 5 day wash out
# Experimental: Response to the development of contextual fear conditioning in an open field model, a model for PTSD, was evaluated in C57/BL6 male mice using the Kinder Scientific MotorMonitor System (Version 3.11, Kinder Scientific, Poway, Calif.). On Day 1 (Trauma Induction Day), animals were pretreated with compound 30 minutes prior to trauma induction and placed in a cage with a shock-grid floor. Locomotor activity was evaluated by an automated open field system with infrared photo-beams. The mice were placed in the center of the cage and the following variables of motor activity were recorded: locomotor activity, fine movement, and rearing. Animals were placed in the chamber for a total of 300 seconds. After 230 seconds, a 10 second, 2.0 mA electric footshock was administered. Mice remained in the chamber for an additional minute. Mice were then injected subcutaneously for 10 consecutive days (starting 24 hours post trauma induction) with either Compound A (3.0 mg/kg) or vehicle. On day 16, following a 5 day wash out period, mice were exposed to the traumatic environment without shock for 5 minutes. Total ambulatory activity was compared between Day 1 and Day 16.
# [2] = Neuromuscular coordination (rotarod); design: species or system mice; conditions: male, Swiss Webster (CFW), mouse, in vivo, sc; subcutaneous administration, tested 30 minutes after dosing; read-out: ED50 (ability to remain on the rotarod)
# Experimental: This model can be used to determine the dose of a compound or composition at which unwanted side effects (muscle tone/motor coordination deficits) occur. Animals (C57 Mice) are placed on a rotarod treadmill (model V EE/85, Columbus Instruments, Columbus, Ohio) accelerating from 1 to 80 revolutions/4 minutes. All mice are given two control trials at least 12 hours before oral administration evaluation of compounds. Mice are tested on the rotarod 30 minutes after administration of compounds. The number of seconds each mouse remained on the rotarod is recorded.
# Doses at which the coordination of an animal is decreased or at which its motor function is altered, such that the ability of the animal to remain on the rotarod is reduced, are determined. Doses below this are selected for further evaluation.
# Male Swiss Webster (CFW) mice were placed on a rotarod (model V EE/85, Columbus Instruments, Columbus, Ohio) accelerating from 1 to 80 revolutions/4 minutes. All mice were given two control trials at least 12 hours before administration of the present compounds for evaluation. Mice were tested on the rotarod 30 minutes after subcutaneous administration of compounds. The number of seconds each mouse remained on the rotarod was recorded. Compounds that decreased coordination or altered motor function reduced the ability of the animal to remain on the rotarod.
# [3] = system: C57/BL6 male mice; experiment: Contextual fear conditioning in a passive avoidance model; assay type: in vivo
# Experimental: The passive avoidance model is an example of a fear conditioning behavior. To perform this test, animals were trained and tested in a Kinder Scientific avoidance system consisting of a shuttle box with a shock grid floor. On day one, mice were introduced to the system by being allowed to move freely between a darkened side and a lighted side of the shuttle box for 3 minutes after a 1 minute acclimation in the dark. Day two (24 hours later) was similar to the first day except that animals received a 1.0 mA foot shock after crossing to the dark compartment. Vehicle or test compounds are administered subcutaneously 30 minutes prior to this training day. Twenty four hours after the training day, animals were put back in the shuttle box and after a minute acclimation period in the dark, the latency to cross from the lighted to the dark compartment (now with the shock off) was recorded.
# Response to the development of contextual fear conditioning in an open field model was evaluated in C57/BL6 male mice using an avoidance shuttle chamber (Kinder Scientific, Poway, Calif.). On Day 1, mice were allowed to run through the shuttle box for 3 minutes in order to acclimate them to it. One side was light and the other was dark. One Day 2, animals were dosed subcutaneously […] prior to training. […] The latency to cross to the dark side was recorded, with a 3 minute maximum testing duration.
# [4] = system: C-57 mice; experiment: Conditioned avoidance response (CAR) model; assay type: in vivo
# Description: The Condition Avoidance Responding (CAR, active avoidance) model is a measure of cognitive and attention impairment. It evaluates the disruption of avoidance (increased latency) without disruption of escape (extrapyramidal motor function).
# The training of C-57 mice consists of 20 trials with variable inter-trial intervals (trained to 80% Avoidance Criteria). After a one-minute acclimation period, the house light and an acoustic 90 decibel tone (conditioned stimuli) are presented. A response (crossing to dark compartment) within 5 seconds ends the trial and trial is recorded as avoidance response (CAR). […] To avoid shock, animals learn to move from the lighted side of the − chamber to the dark side when the cue is presented (avoidance) or moved when the shock is administered (escape). Compounds that disrupt cognition in the CAR model can be excluded from candidate consideration.
# The present compounds were tested in the conditioned avoidance response (CAR) model and in the Spontaneous Activity model described above.
structure (smiles),measurement,setting,value
"O=C1CCCc2c1ccn2CCN1CCN(c2cccc(Cl)c2)CC1 [Compound A, 1-{2-[4-(3-Chlorophenyl)piperazin-1-yl]ethyl}-1,5,6,7-tetrahydroindol-4-one]",suppressed basic movements compared to vehicle treated animals (FIG. 2),[1],displayed a reduction in suppressed basic movements
same,ED50 at 30 min,[2],23 mg/kg
same,latency to cross over to the dark side compared to vehicle (FIG. 3),"[3]; dosed subcutaneously 20 minutes prior to training, tested 24 hours later",showed a reduction in latency to cross over to the dark side
same,duration of the improvement in latency,[3]; testing on Days 3-5 post-shock administration,three consecutive days of testing
same,"minimum effective dose, Conditioned Avoidance Response",[4]; models unwanted side effects,>10 mg/kg
same,effect in the CAR model compared to vehicle treated mice,"[4]; subcutaneous, doses of up to 10 mg/kg",did not produce any effect
